For seven molecules, EC50, MCC and IC50 results are on record in ChEMBL document CHEMBL2417501, “Synthesis of 4-aminoquinoline-pyrimidine hybrids as potent antimalarials and their mode of action studies” (Eur J Med Chem, 2013).

Data set [1] relates to Influenza B virus. The data set is described as follows: Antiviral activity against influenza B virus infected in dog MDCK cells assessed as reduction of virus-induced cytopathogenicity by MTS assay. It counts as functional, organism-based. A general note: Protection from cytopathic effect is a common read-out in antiviral testing.
A short description of data set [2]: Cytotoxicity against MDCK cells assessed as cell viability after 4 days by MTS assay. It is filed as cell-based, Canis lupus familiaris. Particulars: dog, MDCK cells.
In data set [3] the test system is Influenza A virus. As to the kind of experiment: Antiviral activity against influenza A virus H1N1 subtype infected in dog MDCK cells assessed as reduction of virus-induced cytopathogenicity by MTS assay. It is filed as functional, organism-based.
Data set [4] deals with Influenza A virus. As to the kind of experiment: Antiviral activity against influenza A virus […] subtype infected in dog MDCK cells assessed as reduction of virus-induced cytopathogenicity by MTS assay. It counts as functional, organism-based.
The subject of data set [5] is Sindbis virus. As to the kind of experiment: Antiviral activity against Sindbis virus infected in african green monkey Vero cells assessed as reduction of virus-induced cytopathogenicity. It is filed as functional, organism-based.
A short description of data set [6]: Cytotoxicity against human HeLa cells. It is filed as cell-based.
Data set [7] in a line: Cytotoxicity against african green monkey Vero cells. It counts as cell-based. As to conditions: chlorocebus sabaeus.
Data set [8] concerns Punta Toro virus. The data set is described as follows: Antiviral activity against […] infected in african green monkey Vero cells assessed as reduction of virus-induced cytopathogenicity. It counts as functional, organism-based.
Data set [9] concerns Coxsackievirus. As to the kind of experiment: Antiviral activity against Coxsackievirus B4 infected in african green monkey Vero cells assessed as reduction of virus-induced cytopathogenicity. It counts as functional, organism-based.
The subject of data set [10] is Coxsackievirus. As to the kind of experiment: Antiviral activity against Coxsackievirus B4 infected in human HeLa cells assessed as reduction of virus-induced cytopathogenicity. It counts as functional, organism-based.
Data set [11] deals with Mammalian orthoreovirus 1. The data set is described as follows: Antiviral activity against Reovirus-1 infected in african green monkey Vero cells assessed as reduction of virus-induced cytopathogenicity. As to conditions: Mammalian orthoreovirus 1, Vero. It is filed as functional, organism-based.
Data set [12] concerns Respiratory syncytial virus. The data set is described as follows: Antiviral activity against Respiratory syncytial virus infected in human HeLa cells assessed as reduction of virus-induced cytopathogenicity. It is filed as functional, organism-based.
The test system of data set [13] is Human respirovirus 3. As to the kind of experiment: Antiviral activity against Parainfluenza-3 virus infected in african green monkey Vero cells assessed as reduction of virus-induced cytopathogenicity. It counts as functional, organism-based. As to conditions: Human respirovirus 3, Vero.
Data set [14] deals with Vesicular stomatitis virus. As to the kind of experiment: Antiviral activity against Vesicular stomatitis virus infected in human HeLa cells assessed as reduction of virus-induced cytopathogenicity. It counts as functional, organism-based.
For data set [15], the system named is Plasmodium falciparum. As to the kind of experiment: Antimalarial activity against chloroquine-resistant Plasmodium falciparum Dd2. It counts as functional, organism-based.
Data set [16] is described as follows: Cytotoxicity against human HEL cells. It counts as cell-based.
Data set [17] deals with Vesicular stomatitis virus. The data set is described as follows: Antiviral activity against Vesicular stomatitis virus infected in human HEL cells assessed as reduction of virus-induced cytopathogenicity. It counts as functional, organism-based.
Data set [18] has as its system Cytomegalovirus. The data set is described as follows: Antiviral activity against Cytomegalovirus AD-169 infected in human HEL cells assessed as reduction of plaque formation. It is filed as functional, organism-based. Particulars: Human betaherpesvirus 5, AD-169, HEL.
Data set [19] has as its system Cytomegalovirus. As to the kind of experiment: Antiviral activity against Cytomegalovirus Davis infected in human HEL cells assessed as reduction of plaque formation. It counts as functional, organism-based. Particulars: Human betaherpesvirus 5, Davis.
The subject of data set [20] is Human alphaherpesvirus 3. As to the kind of experiment: Antiviral activity against TK-positive Varicella-zoster virus OKA infected in human HEL cells assessed as reduction of plaque formation. It counts as functional, cell-based. As to conditions: Human alphaherpesvirus 3, strain Oka vaccine.
The subject of data set [21] is Human alphaherpesvirus 2. As to the kind of experiment: Antiviral activity against Herpes simplex virus-2 G infected in human HEL cells assessed as reduction of virus-induced cytopathogenicity. It is filed as functional, organism-based. As to conditions: Human alphaherpesvirus 2, strain G.
Data set [22] concerns Human alphaherpesvirus 3. The data set is described as follows: Antiviral activity against […] Varicella-zoster virus 07-1 infected in human HEL cells assessed as reduction of plaque formation. It is filed as functional, organism-based. Particulars: Human alphaherpesvirus 3, 07-1, HEL.

In general, EC50 refers to the concentration needed to bring the measured effect to its halfway point. As for `CC(N)C12CC3CC(CC(C3)C1)C2` (centres undefined) [RIMANTADINE], the EC50 in data set [1] is > 200 µM; in data set [3], 6.4 µM; in data set [4] (read-out: EC50) it was 0.01 µM. For the same molecule, in data set [2], the MCC at 96 h is > 200 µM.

`NC12CC3CC(CC(C3)C1)C2` [AMANTADINE]: the values for the EC50 in [1], in data set [3] and in data set [4] were > 200 µM, 17 µM and 0.3 µM, respectively. For the same molecule, in data set [2], the MCC at 96 h was > 200 µM.

As for `Nc1ncnc2c1ncn2C[C@H](O)CO` [(S)-DHPA], the EC50 in data set [5], in data set [8], in data set [9], in data set [10], in [11] and in [12] was > 250 µM throughout. The EC50 in [13] was 146 µM; in data set [14], > 250 µM. Moreover, the MCC in data set [6] and in data set [7] was > 250 µM throughout.

As usually defined, the IC50 is the concentration needed to halve the response being measured. With `C[C@H]1[C@H](OC(=O)CCC(=O)O)O[C@@H]2O[C@@]3(C)CC[C@H]4[C@H](C)CC[C@@H]1[C@@]24OO3` [ARTESUNATE], the IC50 in [15] stood at 0.0312 µM.

Take `NC(=O)c1ncn([C@@H]2O[C@H](CO)[C@@H](O)[C@H]2O)n1` [RIBAVIRIN]: the EC50 in data set [1] is 2.8 µM; in [5] it was > 250 µM; in data set [9] it was > 250 µM; in data set [3], 2.5 µM; in data set [10], 112 µM; in data set [11], > 250 µM. Moreover, the EC50 in data set [4] (read-out: EC50) was 1.1 µM; in [13] it was 146 µM. Also, in [2], the MCC at 96 h is > 100 µM. Also, the MCC in [6] and in data set [7] was > 250 µM each time.

For `Nc1ccn(C[C@@H](CO)OCP(=O)(O)O)c(=O)n1` [CIDOFOVIR], in [16], the MCC is > 250 µM. The EC50 in data set [17] was > 250 µM; in data set [18], 0.86 µM; in data set [19], 1.84 µM.

With `O=c1[nH]c(=O)n([C@H]2C[C@H](O)[C@@H](CO)O2)cc1/C=C/Br` [BRIVUDINE], the MCC in data set [16] is > 250 µM. The concentration giving a half-maximal response (EC50) in [17] was > 250 µM; in data set [20] it was 3.82 µM; in data set [21] it was 146 µM; in [22], 145 µM.
